Nine compounds from US10030020B2, “Spirocycle compounds and methods of making and using same” (Abide Therapeutics, Inc., priority 2016, dated 2018) can be followed below.

Assay [1] concerns the target T1, ABHD6 (Mus musculus (Mouse), UniProt Q8R2Y0). In words: In vitro competitive activity-based protein profiling (mouse brain membrane fraction or cell lysates), ABHD6 band. It is filed as biochemical. The following applies: mouse proteome; for inhibition at 1 µM: read-out: ABHD6 % Inh 1 μM (mouse); for IC50: competitive ABPP. The gist of the method:
(§1)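 Mouse proteome samples (brain membrane fraction or cell lysate, 1.0 mg/mL protein) were pretreated with varying inhibitor concentrations and subsequently probed with fluorophosphonate-rhodamine, each step lasting 30 min at 37° C. Labelled proteins were separated by SDS-PAGE, and band fluorescence was imaged and quantified.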

For assay [2], the target named is T2, FAAH (Mus musculus (Mouse), UniProt O08914). In words: In vitro competitive activity-based protein profiling (mouse brain membrane fraction or cell lysates), FAAH band. It is filed as biochemical. Conditions: mouse proteome; for inhibition at 1 µM: read-out: FAAH % Inh 1 μM (mouse); for IC50: competitive ABPP. The gist of the method:
as §1

Assay [3] deals with T3, MAGL (Mus musculus (Mouse), UniProt O35678). In words: In vitro competitive activity-based protein profiling (mouse brain membrane fraction or cell lysates), MAGL band. The following applies: mouse proteome; for inhibition at 1 µM: read-out: MAGL % Inh 1 μM (mouse); for IC50: competitive ABPP. It is filed as biochemical. The procedure: In Vitro Competitive Activity-Based Protein Profiling.
Proteomes (mouse brain membrane fraction or cell lysates) (50 μL, 1.0 mg/mL total protein concentration) were preincubated with varying concentrations of inhibitors at 37° C. After 30 min, FP—Rh (1.0 μL, 50 μM in DMSO) was added and the mixture was incubated for another 30 min at 37° C. Reactions were quenched with SDS loading buffer (50 μL-4×) and run on SDS-PAGE.

Assay [4] concerns the target T3, MAGL. In words: Mouse brain proteomes from inhibitor treated mice (oral gavage, sacrificed 4 h after administration, ABPP analysis). Format: in vivo, mouse (C57Bl/6J). The following applies: 5 mg/kg oral gavage. The gist of the method:
(§2)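 Wild-type C57Bl/6J mice were dosed by oral gavage in vehicle (e.g. PEG400/Ethanol/PBS 7/2/1) and sacrificed 4 h later. Brain proteomes were analysed by activity-based protein profiling; values are % inhibition at 5 mg/kg.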

Assay [5] has as its target T1, ABHD6. In words: Mouse brain proteomes from inhibitor treated mice (oral gavage, sacrificed 4 h after administration, ABPP analysis), ABHD6. Conditions: 5 mg/kg oral gavage. Format: in vivo, mouse (C57Bl/6J). The gist of the method: as §2
Assay [6] has as its target T2, FAAH. In words: Mouse brain proteomes from inhibitor treated mice (oral gavage, sacrificed 4 h after administration, ABPP analysis), FAAH. Format: in vivo, mouse (C57Bl/6J). Conditions: 5 mg/kg oral gavage. The gist of the method: as §2

T1 sequence (Q8R2Y0 whole entry): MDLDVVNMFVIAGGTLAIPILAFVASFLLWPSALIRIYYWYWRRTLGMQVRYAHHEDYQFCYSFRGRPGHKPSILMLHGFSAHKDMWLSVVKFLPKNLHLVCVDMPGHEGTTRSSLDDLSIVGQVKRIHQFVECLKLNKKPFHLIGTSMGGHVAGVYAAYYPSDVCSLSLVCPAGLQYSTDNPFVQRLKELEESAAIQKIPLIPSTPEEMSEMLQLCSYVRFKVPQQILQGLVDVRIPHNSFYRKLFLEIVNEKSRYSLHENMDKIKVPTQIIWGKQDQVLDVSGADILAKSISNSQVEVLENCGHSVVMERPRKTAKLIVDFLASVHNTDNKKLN
T3 sequence (O35678 whole entry): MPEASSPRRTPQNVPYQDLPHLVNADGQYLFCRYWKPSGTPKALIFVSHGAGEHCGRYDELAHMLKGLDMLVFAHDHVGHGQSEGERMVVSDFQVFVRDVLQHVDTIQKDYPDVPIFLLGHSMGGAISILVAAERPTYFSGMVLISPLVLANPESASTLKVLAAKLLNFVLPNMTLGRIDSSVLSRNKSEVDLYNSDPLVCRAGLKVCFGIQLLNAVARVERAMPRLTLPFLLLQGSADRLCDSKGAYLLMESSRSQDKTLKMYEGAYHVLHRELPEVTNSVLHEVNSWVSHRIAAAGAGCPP
T2 sequence (O08914 whole entry): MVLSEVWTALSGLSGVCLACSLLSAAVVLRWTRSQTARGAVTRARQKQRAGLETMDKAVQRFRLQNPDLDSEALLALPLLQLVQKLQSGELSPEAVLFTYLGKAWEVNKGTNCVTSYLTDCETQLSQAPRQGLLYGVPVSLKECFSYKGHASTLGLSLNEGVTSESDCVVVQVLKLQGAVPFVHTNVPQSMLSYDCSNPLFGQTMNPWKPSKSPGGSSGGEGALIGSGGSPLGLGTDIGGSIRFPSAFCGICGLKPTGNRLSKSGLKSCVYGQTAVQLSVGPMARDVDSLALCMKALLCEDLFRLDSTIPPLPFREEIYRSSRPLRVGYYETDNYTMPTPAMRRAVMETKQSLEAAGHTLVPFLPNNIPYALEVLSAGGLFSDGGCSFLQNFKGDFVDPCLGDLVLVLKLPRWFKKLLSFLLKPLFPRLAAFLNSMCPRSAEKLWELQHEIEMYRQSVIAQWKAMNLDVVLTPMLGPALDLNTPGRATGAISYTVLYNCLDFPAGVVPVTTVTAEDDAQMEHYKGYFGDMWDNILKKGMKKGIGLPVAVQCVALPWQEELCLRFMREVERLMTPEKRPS

For the compound `O=C(OC(C(F)(F)F)C(F)(F)F)N1CCC2(CCCN2Cc2cccc(Cl)c2)CC1` [Example 61, 1,1,1,3,3,3-Hexafluoropropan-2-yl 1-(3-chlorobenzyl)-1,8-diazaspiro[4.5]decane-8-carboxylate], the inhibition at 1 µM in assay [1] is 25 to 75%; in assay [2], 25 to 75%; in assay [3], more than 75%. Besides, the values for the IC50 in assay [1], in assay [2] and in assay [3] were more than 1 µM, more than 1 µM and less than 0.1 µM, respectively. In addition, the “MAGL % Inh 5 mg/kg (mouse)” value in assay [4] is recorded as “### (### is ≥75%)”. The “ABHD6 % Inh 5 mg/kg (mouse)” value in assay [5] was “# (# is <25%)”. The “FAAH % Inh 5 mg/kg (mouse)” value in assay [6] is on record as “### (### is ≥75%)”.
On to `O=C(OC(C(F)(F)F)C(F)(F)F)N1CCC2(CCCN2Cc2ccc(Cl)cc2)CC1` [Example 62, 1,1,1,3,3,3-Hexafluoropropan-2-yl 1-(4-chlorobenzyl)-1,8-diazaspiro[4.5]decane-8-carboxylate], for which the inhibition at 1 µM in assay [1] is less than 25%; in assay [2], less than 25%; in assay [3], more than 75%. The IC50 – broadly, the concentration at which inhibition is half-maximal – in assay [1] was more than 1 µM; in assay [2], more than 1 µM; in assay [3], less than 0.1 µM. The “MAGL % Inh 5 mg/kg (mouse)” value in assay [4] is recorded as “### (### is ≥75%)”. Further, in assay [5], the “ABHD6 % Inh 5 mg/kg (mouse)” value is “## (## is equal to or greater than 25% but less than 75%)”. In addition, in assay [6], the “FAAH % Inh 5 mg/kg (mouse)” value is “## (## is equal to or greater than 25% but less than 75%)”.
As to `O=C(OC(C(F)(F)F)C(F)(F)F)N1CCC2(CCN(Cc3cccc(Cl)c3N3CCC(F)(F)CC3)C2)CC1` [Example 64, 1,1,1,3,3,3-Hexafluoropropan-2-yl 2-(3-chloro-2-(4,4-difluoropiperidin-1-yl)benzyl)-2,8-diazaspiro[4.5]decane-8-carboxylate], the inhibition at 1 µM is less than 25% in assay [1], less than 25% in assay [2] and more than 75% in assay [3]. In addition, the half-inhibitory concentration (IC50) in assay [1] is more than 1 µM; in assay [2] it was more than 1 µM; in assay [3] it was less than 0.1 µM. The “MAGL % Inh 5 mg/kg (mouse)” value in assay [4] was “## (## is equal to or greater than 25% but less than 75%)”. For the same compound, in assay [5], the “ABHD6 % Inh 5 mg/kg (mouse)” value is reported as “# (# is <25%)”. In addition, the “FAAH % Inh 5 mg/kg (mouse)” value in assay [6] was “# (# is <25%)”.
As to `O=C(OC(C(F)(F)F)C(F)(F)F)N1CCC2(CCN(Cc3cccc(Cl)c3N3CCC(F)CC3)C2)CC1` [Example 65, 1,1,1,3,3,3-Hexafluoropropan-2-yl 2-(3-chloro-2-(4-fluoropiperidin-1-yl)benzyl)-2,8-diazaspiro[4.5]decane-8-carboxylate], the inhibition at 1 µM is 25 to 75% in assay [1], less than 25% in assay [2] and more than 75% in assay [3]. Further, the half-maximal inhibitory concentration (IC50) in assay [1] is more than 1 µM; in assay [2], more than 1 µM; in assay [3], less than 0.1 µM. The “MAGL % Inh 5 mg/kg (mouse)” value in assay [4] is on record as “## (## is equal to or greater than 25% but less than 75%)”. In assay [5], the “ABHD6 % Inh 5 mg/kg (mouse)” value is recorded as “## (## is equal to or greater than 25% but less than 75%)”. The “FAAH % Inh 5 mg/kg (mouse)” value in assay [6] is “# (# is <25%)”.
With `O=C(OC(C(F)(F)F)C(F)(F)F)N1CCC2(CCCN2Cc2ccc(C(F)(F)F)cc2N2CCCC2)CC1` [Example 66, 1,1,1,3,3,3-Hexafluoropropan-2-yl 1-(2-(pyrrolidin-1-yl)-4-(trifluoromethyl)benzyl)-1,8-diazaspiro[4.5]decane-8-carboxylate], the inhibition at 1 µM in assay [1] was less than 25%; in assay [2] it was less than 25%; in assay [3] it was more than 75%. For the same compound, the IC50 in assay [1] is more than 1 µM; in assay [2], more than 1 µM; in assay [3], less than 0.1 µM. In addition, the “MAGL % Inh 5 mg/kg (mouse)” value in assay [4] is recorded as “## (## is equal to or greater than 25% but less than 75%)”. The “ABHD6 % Inh 5 mg/kg (mouse)” value in assay [5] is “# (# is <25%)”. The “FAAH % Inh 5 mg/kg (mouse)” value in assay [6] is reported as “# (# is <25%)”.
Turning to `O=C(OC(C(F)(F)F)C(F)(F)F)N1CCC2(CCCN2Cc2ccc(C(F)(F)F)cc2N2CCOCC2)CC1` [Example 67, 1,1,1,3,3,3-Hexafluoropropan-2-yl 1-(2-morpholino-4-(trifluoromethyl)benzyl)-1,8-diazaspiro[4.5]decane-8-carboxylate], the inhibition at 1 µM in assay [1] is less than 25%; in assay [2], less than 25%; in assay [3] it was more than 75%. Moreover, the IC50 was more than 1 µM in assay [1], more than 1 µM in assay [2] and less than 0.1 µM in assay [3]. Moreover, in assay [4], the “MAGL % Inh 5 mg/kg (mouse)” value is “### (### is ≥75%)”. The “ABHD6 % Inh 5 mg/kg (mouse)” value in assay [5] is listed as “# (# is <25%)”. In addition, the “FAAH % Inh 5 mg/kg (mouse)” value in assay [6] is “# (# is <25%)”.
Consider `CCN1CCCc2cccc(CN3CCC4(CCN(C(=O)OC(C(F)(F)F)C(F)(F)F)CC4)C3)c21` [Example 71, 1,1,1,3,3,3-Hexafluoropropan-2-yl 2-((1-ethyl-1,2,3,4-tetrahydroquinolin-8-yl)methyl)-2,8-diazaspiro[4.5]decane-8-carboxylate], for which the inhibition at 1 µM in assay [1] was 25 to 75%; in assay [2], less than 25%; in assay [3], more than 75%. The figures for the IC50 in assay [1], in assay [2] and in assay [3] were more than 1 µM, more than 1 µM and less than 0.1 µM, respectively. Also, the “MAGL % Inh 5 mg/kg (mouse)” value in assay [4] is listed as “### (### is ≥75%)”. In addition, the “ABHD6 % Inh 5 mg/kg (mouse)” value in assay [5] is “## (## is equal to or greater than 25% but less than 75%)”. For the same compound, the “FAAH % Inh 5 mg/kg (mouse)” value in assay [6] is on record as “# (# is <25%)”.
As to `O=C(OC(C(F)(F)F)C(F)(F)F)N1CCC2(CCN(Cc3ccc(C(F)(F)F)cc3N3CCCC3)C2)CC1` [Example 72, 1,1,1,3,3,3-Hexafluoropropan-2-yl 2-(2-(pyrrolidin-1-yl)-4-(trifluoromethyl)benzyl)-2,8-diazaspiro[4.5]decane-8-carboxylate], the inhibition at 1 µM is less than 25% in assay [1], less than 25% in assay [2] and more than 75% in assay [3]. In addition, the IC50 is more than 1 µM in assay [1], more than 1 µM in assay [2] and less than 0.1 µM in assay [3]. Also, the “MAGL % Inh 5 mg/kg (mouse)” value in assay [4] is on record as “## (## is equal to or greater than 25% but less than 75%)”. For the same compound, the “ABHD6 % Inh 5 mg/kg (mouse)” value in assay [5] was “# (# is <25%)”. For the same compound, the “FAAH % Inh 5 mg/kg (mouse)” value in assay [6] is listed as “# (# is <25%)”.
Consider `O=C(OC(C(F)(F)F)C(F)(F)F)N1CCC2(CCCN2Cc2ccc(C(F)(F)F)cc2N2CC3CCC(C2)O3)CC1` [Example 73, 1,1,1,3,3,3-Hexafluoropropan-2-yl 1-(2-(8-oxa-3-azabicyclo[3.2.1]octan-3-yl)-4-(trifluoromethyl)benzyl)-1,8-diazaspiro[4.5]decane-8-carboxylate], for which the values for the inhibition at 1 µM in assay [1], in assay [2] and in assay [3] were less than 25%, less than 25% and more than 75%, respectively. Also, the half-inhibitory concentration (IC50) was more than 1 µM in assay [1], more than 1 µM in assay [2] and less than 0.1 µM in assay [3]. Moreover, the “MAGL % Inh 5 mg/kg (mouse)” value in assay [4] is given as “## (## is equal to or greater than 25% but less than 75%)”. In addition, in assay [5], the “ABHD6 % Inh 5 mg/kg (mouse)” value is “# (# is <25%)”. Also, the “FAAH % Inh 5 mg/kg (mouse)” value in assay [6] is on record as “# (# is <25%)”.
